Experiment: Stability of intravenous stock solution
Assay type: physicochemical
Settings: stock solution 10 mg/mL in phosphate buffered saline adjusted to pH about 7.4 with NaOH; at 40 C
Description: Preparation Procedures: An intravenous formulation will be made as a stock solution (10 mg/mL) one day prior to the start of dosing consisting of phosphate buffered saline adjusted to pH about 7.4 with NaOH. The dosing formulations will be prepared on the day of dosing by diluting the appropriate amount of the stock solution with D5W to obtain concentrations of 3.14 mg/mL of Compound 3 and then will be sterile filtered using a 0.20 micron filter about few hours prior to the start of dosing. The test formulation was stored at approximately 4° C. protected from light. The vehicle used for IV introduction was phosphate buffered saline consisting of 0.0144% (w/v) of KH2PO4, 0.90% (w/v) of NaCL, 0.0795% (w/v) of Na2HPO4, 0.325% of NaOH (1N) and […] sterile water for injection with the resulting pH of approximately 7.4. The stock solution (10 mg/mL) is stable for 7 days at 40 C.

N#Cc1cc(-c2ccc(OP(=O)(O)O)c(F)c2)cc2ccc(OP(=O)(O)O)cc12 [Compound 3]
Time over which stock solution is stable: 7 days
